Test results published in patent publication US8895579B2, “Heterotricyclic AMPA receptor antagonists for treatment of epilepsy, pain, and other neurological disorders and diseases” (Northwestern University, priority 2010, dated 2014).

Key:
GluA2 = molecular target: T1, GluA2 (Rattus norvegicus, UniProt P19491); test: [3H]-AMPA radioligand binding, membranes of HEK293-T/17 cells expressing GluA2; details: 100 μM; 20 nM [3H]-AMPA; 1 h at 4° C.
T1 construct: expressed in transfected cells; host or cells: HEK293-T/17 (CRL-11268), membranes
T1 sequence (P19491 22-883 isoform P19491-2 limits assumed): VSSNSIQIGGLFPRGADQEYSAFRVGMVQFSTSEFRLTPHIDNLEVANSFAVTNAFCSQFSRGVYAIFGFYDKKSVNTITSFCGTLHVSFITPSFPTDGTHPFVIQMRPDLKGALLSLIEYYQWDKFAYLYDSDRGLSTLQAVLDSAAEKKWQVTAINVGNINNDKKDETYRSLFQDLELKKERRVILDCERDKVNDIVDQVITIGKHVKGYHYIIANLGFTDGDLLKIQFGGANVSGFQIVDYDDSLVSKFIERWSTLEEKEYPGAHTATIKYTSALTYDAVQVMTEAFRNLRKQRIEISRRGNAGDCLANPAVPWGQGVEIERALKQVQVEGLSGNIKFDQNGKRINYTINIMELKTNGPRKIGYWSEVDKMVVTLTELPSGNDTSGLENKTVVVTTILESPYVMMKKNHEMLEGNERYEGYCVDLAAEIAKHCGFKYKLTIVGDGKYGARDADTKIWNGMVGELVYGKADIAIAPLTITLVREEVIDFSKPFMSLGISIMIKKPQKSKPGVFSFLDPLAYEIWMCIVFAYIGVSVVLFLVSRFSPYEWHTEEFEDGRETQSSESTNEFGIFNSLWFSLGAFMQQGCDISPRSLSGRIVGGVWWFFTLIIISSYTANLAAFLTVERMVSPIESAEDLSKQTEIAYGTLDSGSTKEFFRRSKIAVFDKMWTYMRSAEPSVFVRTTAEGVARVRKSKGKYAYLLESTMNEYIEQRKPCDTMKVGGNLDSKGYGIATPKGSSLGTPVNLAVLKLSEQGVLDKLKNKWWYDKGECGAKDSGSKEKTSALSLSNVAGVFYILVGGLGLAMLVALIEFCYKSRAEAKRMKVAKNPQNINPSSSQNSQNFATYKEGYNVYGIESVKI
Procedure: Radioligand binding. HEK293-T/17 cells were transfected with 5 μg of iGluR cDNA in 100 mm^2 culture dishes. Two days post transfection, the plates were washed twice with ice-cold Dulbecco's phosphate-buffered saline (DPBS) and then incubated with 50 mM Tris (pH 7.4) and 1 mM EDTA for three minutes on ice. Cells were collected and centrifuged for five minutes at 800 g at room temperature. The cell pellet was homogenized in 50 mM Tris (pH 7.4) containing 320 mM sucrose (homogenization buffer, HB) on ice using a glass dounce homogenizer and centrifuged at 4° C. for 10 minutes at 800 g. The supernatant, containing the membrane fragments, was saved and the remaining pellet containing nuclei and unbroken cells was resuspended in HB. This homogenization process was repeated two more times and after collection of the final resulting supernatant, the remaining pellet was discarded. The collected supernatants were centrifuged at 4° C. for 20 minutes at 20000 g and the resulting supernatant was discarded leaving a membrane-containing pellet. […] Non-specific binding was determined as the amount of radioligand bound in the presence of a saturating concentration of glutamate (1 mM). Total binding was determined as the amount of radioligand bound in the absence of any competing ligands minus the non-specific binding. […]

[1] = tested on: primary hippocampal neurons; test: Spontaneous action potential firing, current clamp, cultured hippocampal neurons; type: cell-based; details: 20 μM
Procedure: Experiments involving primary hippocampal neurons were carried out as described previously (Vivithanaporn et al., 2007). Dissociated neurons were cultured from E18 prenatal hippocampi and were used for analysis from between 17 and 28 days in vitro. The extracellular solution was the same as used for recombinant receptor analysis, while the internal solution for voltage clamp recordings contained (in mM) 95 CsF, 25 CsCl, 10 Cs-HEPES, 10 EGTA, 2 NaCl, 2 Mg-ATP, 10 QX-314, 5 TEA. and 5 4-AP (pH 7.3) and the internal solution for current clamp recordings contained (in mM) 120 KMeSO4, 5 KCl, 5 NaCl, 1 MgCl2, 11 Na-HEPES, 10 phosphocreatine, 4 Na-ATP, and 0.3 Na-GTP (pH 7.0). Borosilicate patch electrodes were pulled and fire polished to 3-5 MΩ resistance. Both whole cell current clamp and voltage clamp recordings were performed using an Axopatch 200B amplifier (MDS, Sunnyvale, Calif.) and filtered at 20 kHz. Gigaohm seals were established in voltage clamp mode and, after membrane rupture, the recordings were carried out either in voltage clamp (clamped at Vm=−70 mV) with a […] series resistance, which was compensated to ˜60%, or in current clamp mode ([…]) with the bridge balance was corrected and pipette resistance neutralized. In vitro status epilepticus (SE) was induced as described previously (Deshpande et al., 2007; Pal et al., 1999) and action potentials were recorded in current clamp mode. Briefly for in vitro SE, magnesium-containing external solution was exchanged for external solution without magnesium and supplemented with 2 μM glycine. This solution exchange produced a period of rapid depolarization and increased AP firing, followed by a period of channel inactivation and reduced AP firing. After channel inactivation, neurons characteristically would hyperpolarize to hold at a membrane voltage (Vm) which was depolarized relative to control Vm, with an increase in AP firing frequency. […] External solutions were bath-applied at a flow rate of 1.5-2 ml/minute. After recording a basal control period, IKM compounds were applied for five minutes (10 minutes for in vitro SE experiments) and changes in excitatory post-synaptic current (EPSC) charge transfer or action potential (AP) frequency were analyzed during the last two minutes of IKM application.
Effects of IKM-159 on neuronal excitability. […] To determine if altered neuronal excitability could contribute to this behavioral phenotype, we examined the effect of IKM-86 and IKM-159 on action potential firing in cultured hippocampal neurons. Spontaneous action potentials were recorded in current-clamp mode before, during and after application of 20 μM IKM-86 and IKM-159. […]

[2] = tested on: NMDA receptor-mediated EPSCs, CA1 pyramidal cells; test: NMDA receptor EPSCs at Schaffer collateral-CA1 synapses, acute hippocampal slices; type: cell-based, mouse; details: 20 μM; 5 min treatment
Procedure: For recordings from acute hippocampal slices, brains from P15-21 C57Bl/6 mice were sliced transversely (350 μm thickness) in a sucrose slicing solution containing (in mM) 85 NACl, 2.5 KCl, 1.25 NaH2PO4, 25 NaHCO3, 25 glucose, 75 sucrose, 0.5 CaCl2, 4 MgCl2, 0.5 Na ascorbate, 10 μM DL-APV and 100 μM kynurenic acid (pH 7.3). After slicing, the solution was exchanged with an incubation solution containing (in mM) 125 NaCl, 2.4 KCl, 1.2 NaH2PO4, 25 NaHCO3, 25 glucose: 1 CaCl2, 2 MgCl2, 0.5 Na ascorbate, 10 μM DL-APV and 100 μM kynurenic acid (pH 7.3) that was bubbled continuously with CO2-balanced O2 (carbogen). […] Recordings in voltage clamp mode used the CsF/CsCl internal solution and carbogenated external recording solution containing (in mM) 120 NaCl, 2.4 KCl, 2 MgCl2, 1 CaCl2, 25 NaHCO3, 1.2 NaH2PO4, 25 glucose, 10 μM bicuculline methiodide, 50 μM PTX and 50 μM D-APV (pH 7.3). […] NMDA EPSCs were validated by addition of D-APV (50 μM) at the end of each recording. Hippocampal CA1 or CA3 pyramidal cells were voltage clamped at −70 mV and stimulated with a monopolar electrode either the stratum radiatum or stratum lucidum, respectively. […] EPSC charge transfer, AP frequency, paired-pulse ratio and EPSC peak amplitude were analyzed with Mini-Analysis v6.03 (Synaptosoft, Decatur, Ga.) and Clampfit v10.0 (MDS, Sunnyvale, Calif.) software.

With `O=C(O)C[C@@]12O[C@H]3C=CCN[C@H]3C1CN[C@H]2C(=O)O` (stereo partly shown) [IKM-159] the “[3H]AMPA bound as percent of total (specific) binding in absence of competing ligand” value (GluA2) was 107±5%, the “persistence of reduction in action potential firing frequency after removal of compound” value [1] was “prolonged” and the “action potential firing frequency in presence of compound” value ([1]; basal (spontaneous) firing) was 0.5±0.04 Hz. For the same compound, the “NMDA receptor-mediated EPSC amplitude, % of control amplitudes” value [2] was 99±3%.
